Laboratory results taken from publication PMC8055447 (Journal of medicinal chemistry, 2019).

Experiments:
[1] = system: EV-D68 viral capsid protein VP1 expression; assay: Immunofluorescence imaging of viral capsid protein VP1 in infected RD cells; format: cell-based; details: 9 hpi; for VP1 protein expression (immunofluorescence imaging): 1 μM, US/KY/14-18953, MOI = 1
[2] = system: EV-D68 viral capsid protein VP1 expression; assay: Western blot of viral capsid protein VP1 in infected RD cells; format: cell-based; details: 9 hpi, US/KY/14-18953, MOI = 1
[3] = system: EV-D68 US/KY/14-18953 virus; assay: Viral CPE assay, EV-D68 US/KY/14-18953 in RD cells; format: cell-based, enterovirus D68 (EV-D68); details: EV-D68 US/KY/14-18953, RD cells
sodium channels = details: from 2 μM to 50 μM, rat DRG neurons, overnight incubation, veratridine 30 μM

CCCCOc1cc(C(=O)NCCN(CC)CC)c2ccccc2n1 [Dibucaine, dibucaine, reference compound]
fluorescent signal of VP1 (immunofluorescence imaging) ([1]; 3 μM, US/KY/14-18953, MOI = 1, vs DMSO control): significantly reduced
VP1 expression (western blot) ([2]; 3 μM): nearly completely inhibited

CN(C)CCNC(=O)c1cc(-c2cccs2)nc2ccccc12 [Compound 12a, N-[2-(dimethylamino)ethyl]-2-(thiophen-2-yl)quinoline-4-carboxamide]
SI (selectivity index, CC50/EC50) [3]: > 600
VP1 protein expression (immunofluorescence imaging) [1]: completely blocked
VP1 expression (western blot) ([2]; 1 μM): completely blocked

CN(C)CCNC(=O)c1cc(-c2ccccc2)nc2ccccc12 [Compound 10a, N-[2-(dimethylamino)ethyl]-2-phenylquinoline-4-carboxamide]
VP1 protein expression (immunofluorescence imaging) [1]: completely blocked
VP1 expression (western blot) ([2]; 1 μM): completely blocked
inhibition of sodium current conductance (sodium channels): minimal to no effect

O=C(NCCN1CCCC1)c1cc(-c2cccs2)nc2ccccc12 [Compound 12c, N-[2-(pyrrolidin-1-yl)ethyl]-2-(thiophen-2-yl)quinoline-4-carboxamide]
SI (selectivity index, CC50/EC50) [3]: > 600
VP1 protein expression (immunofluorescence imaging) [1]: completely blocked
VP1 expression (western blot) ([2]; 1 μM): completely blocked
